According to EP4800018A1, “PAN-KRAS INHIBITOR AND USE THEREOF IN MEDICINES” (Betta Pharmaceuticals Co., Ltd., priority 2023, dated 2025):
Read-outs that look alike come from different tables or passages of the source.

Assays:
Format in all cases: cell-based
KRAS G12V-cRAF = target: T1, KRAS G12V-cRAF (Homo sapiens, UniProt P01116, G12V); experiment: Cellular KRAS G12V-cRAF Binding Inhibition Assay (NanoBRET, AD293 stable cells); conditions: 3 h incubation
T1 construct: expressed in transfected cells
Procedure, shortened: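 Live AD293 stable cells, NanoLuc donor with HaloTag NanoBRET 618 ligand acceptor added overnight. Inhibition percent from luminescence relative to max signal and medium blank; IC50 from curve fitting.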

[1] = test system: KRAS-G12D mutant tumor cells AGS; experiment: Cell Proliferation Inhibition Assay (AGS), Cell-titer GLO, 96 h; conditions: Homo sapiens, AGS, 96 h, read-out: AGS(G12D)
Procedure, shortened: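 AGS cells (KRAS-G12D) grown in low-attachment plates were exposed to compound for 96 h at 37°C. Viability was read by CellTiter-Glo luminescence and converted to % inhibition against max and blank wells. IC50 came from curve fitting.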

KRAS G12D-cRAF = target: T2, KRAS G12D-cRAF (Homo sapiens, UniProt P01116, G12D); experiment: Cellular KRAS G12D-cRAF Binding Inhibition Assay (NanoBRET, AD293 stable cells); conditions: 3 h incubation
T2 construct: expressed in transfected cells
Procedure, shortened: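 AD293 cells stably expressing KRAS G12D-NanoLuc and cRAF RBD-HaloTag were seeded at 1×10^4 cells/well with NanoBRET 618 ligand overnight. BRET signal was converted to % inhibition of binding relative to max and blank wells, and IC50 came from curve fitting.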

[2] = test system: KRAS-G12V mutant tumor cells SW620; experiment: Cell Proliferation Inhibition Assay (SW620), Cell-titer GLO, 96 h; conditions: Homo sapiens, SW-620, 96 h, read-out: SW620(G12V)
Procedure, shortened: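 SW620 cells (1×10^3/well, low-attachment) were exposed to compound from 10000 to 0.03 nM (0.5% DMSO) for 96 h at 37°C. Viability was read by Cell-titer GLO luminescence. Inhibition was calculated relative to DMSO and blank wells, and IC50 obtained by curve fitting.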

[3] = AGS cells, 96 h incubation, Cell-titer GLO
[4] = SW620 cells, 96 h incubation, Cell-titer GLO

T1 sequence (P01116 1-188 isoform P01116-2 G12V): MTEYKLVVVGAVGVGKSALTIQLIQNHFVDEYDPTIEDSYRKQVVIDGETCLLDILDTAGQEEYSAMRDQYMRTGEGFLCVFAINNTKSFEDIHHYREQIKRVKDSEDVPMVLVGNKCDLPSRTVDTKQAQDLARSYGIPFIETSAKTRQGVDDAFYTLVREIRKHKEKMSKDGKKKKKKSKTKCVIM
T2 sequence (P01116 1-188 isoform P01116-2 G12D): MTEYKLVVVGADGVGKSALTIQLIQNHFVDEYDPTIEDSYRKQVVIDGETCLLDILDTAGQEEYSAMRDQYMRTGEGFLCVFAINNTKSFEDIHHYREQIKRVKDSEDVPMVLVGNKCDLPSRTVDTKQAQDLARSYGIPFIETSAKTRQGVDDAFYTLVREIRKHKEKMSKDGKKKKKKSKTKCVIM

Question: Which IC50 (KRAS G12V-cRAF; read-out: NanoBRET KRAS G12V) does the source give for `[2H]C([2H])([2H])N1CCN(c2cnc3c(c2)-c2c4c5cc(ccc5n2CCCOC3C)-c2csc(n2)CC(NC(=O)C2CC2C(F)F)C(=O)N2CCCC(N2)C(=O)OCC(C)(C)C4)CC1` [Example 91, (1S,2S)-2-(difluoromethyl)-N-((1^5S,6^3S,4S,Z)-1^5,10,10-trimethyl-1^2-(4-(methyl-d3)piperazin-1-yl)-5,7-dioxo-1^8,1^9,6^1,6^2,6^3,6^4,6^5,6^6-octahydro-1^5H,1^7H-8-oxa-1(13,15)-pyrido[3',2':7,8][1,5]oxazonino[5,6-a]indola-2(4,2)-thiazola-6(1,3)-pyridazinacycloundecaphane-4-yl)cyclopropane-1-carb oxamide] here?
Answer: 10.3 nM

Question: And the IC50 [1, 3]?
Answer: 1.51 nM

Question: What about the IC50 (KRAS G12D-cRAF; read-out: NanoBRET KRAS G12D) of the same compound?
Answer: 2.7 nM

Question: And the IC50 [2, 4]?
Answer: 0.21 nM

Question: With `COCCN1CCN(c2cnc3c(c2)-c2c4c5cc(ccc5n2CCCOC3C)-c2csc(n2)CC(NC(=O)C2CC2C(F)F)C(=O)N2CCCC(N2)C(=O)OCC(C)(C)C4)CC1` [Example 101, (1S,2S)-2-(difluoromethyl)-N-((1^5S,6^3S,4S,Z)-1^2-(4-(2-methoxyethyl)piperazin-1-yl)-1^5,10,10-trimethyl-5,7-dioxo-1^8,1^9,6^1,6^2,6^3,6^4,6^5,6^6-octahydro-1^5H,1^7H-8-oxa-1(13,15)-pyrido[3',2':7,8][1,5]oxazonino[5,6-a]indola-2(4,2)-thiazola-6(1,3)-pyridazinacycloundecaphane-4-yl)cyclopropane-1-carboxamide] as the compound, how does the IC50 (KRAS G12V-cRAF; read-out: NanoBRET KRAS G12V) read?
Answer: 12 nM

Question: And the IC50 [1, 3]?
Answer: 1.4 nM

Question: What about the IC50 (KRAS G12D-cRAF; read-out: NanoBRET KRAS G12D) of the same compound?
Answer: 2.74 nM

Question: And the IC50 [2, 4]?
Answer: 0.26 nM

Question: Which results are given for `C[C@@H]1OCC[C@H](C)n2c(c3c4cc(ccc42)-c2csc(n2)C[C@H](NC(=O)[C@H]2C[C@@H]2C)C(=O)N2CCC[C@H](N2)C(=O)OCC(C)(C)C3)-c2cc(N3CCN(C)CC3)cnc21` [Example 5, (1S,2S)-2-methyl-N-((1^5S,1^9S,6^3S,4S,Z)-1^5,1^9,10,10-tetramethyl-1^2-(4-methylpiperazin-1-yl)-5,7-dioxo-1^8,1^9,6^1,6^2,6^3,6^4,6^5,6^6-octahydro-1^5H,1^7H-8-oxa-1(13,15)-pyrido[3',2':7,8][1,5]oxazonino[5,6-a]indola-2(4,2)-thiazola-6(1,3)-pyridazinacycloundecaphane-4-yl)cyclopropane-1-carboxamide]?
Answer: IC50 (KRAS G12V-cRAF; NanoBRET KRAS G12V): 78.8 nM; IC50 [1]: 6.92 nM; IC50 (KRAS G12D-cRAF; NanoBRET KRAS G12D): 25.9 nM; IC50 [2]: 1.08 nM

Question: For `CC1OCCCn2c(c3c4cc(ccc42)-c2csc(n2)CC(NC(=O)C2CC2C)C(=O)N2NC(C(=O)OCC(C)(C)C3)C3CC2C3)-c2cc(N3CCN(C)CC3)cnc21` [Example 183, (1S,2S)-2-methyl-N-((1^5S,6^4S,4S,Z)-1^5,10,10-trimethyl-1^2-(4-methylpiperazin-1-yl)-5,7-dioxo-1 ^8,1^9-dihydro-1^5H,1^7H-8-oxa-6^2,6^3-diaza-1(13,15)-pyrido[3',2':7,8][1,5]oxazonino[5,6-a]indola-2(4,2)-thiazola-6(2,4)-bicyclo[3.1.1]heptanacycloundecaphane-4-yl)cyclopropane-1-carboxamide], which IC50 (KRAS G12V-cRAF; read-out: NanoBRET KRAS G12V) is on record?
Answer: 17.6 nM

Question: And the IC50 [1, 3]?
Answer: 2 nM

Question: And the IC50 (KRAS G12D-cRAF; read-out: NanoBRET KRAS G12D)?
Answer: 2.7 nM

Question: What about the IC50 [2, 4] of the same compound?
Answer: 0.6 nM

Question: How did the IC50 (KRAS G12V-cRAF; read-out: NanoBRET KRAS G12V) turn out when `CC1OCCCn2c(c3c4cc(ccc42)-c2csc(n2)CC(NC(=O)C24CC(C)(C2)C4)C(=O)N2CCCC(N2)C(=O)OCC(C)(C)C3)-c2cc(N3CCN(CC(F)F)CC3)cnc21` [Example 98, N-((1^5S,6^3S,4S,Z)-1^2-(4-(2,2-difluoroethyl)piperazin-1-yl)-1^5,10,10-trimethyl-5,7-dioxo-1^8,1^9,6^1, 6^2,6^3,6^4,6^5,6^6-octahydro-1^5H,1^7H-8-oxa-1(13,15)-pyrido[3',2':7,8][1,5]oxazonino[5,6-a]indola-2(4,2)-thiazola-6(1,3)-pyridazinacycloundecaphane-4-yl)-3-methylbicyclo[1.1.1]pentane-1-carbox amide] was run?
Answer: 61.7 nM

Question: What about the IC50 [1, 3] of the same compound?
Answer: 13.2 nM

Question: What about the IC50 (KRAS G12D-cRAF; read-out: NanoBRET KRAS G12D) of the same compound?
Answer: 14.8 nM

Question: What about the IC50 [2, 4] of the same compound?
Answer: 3.87 nM

Question: For `CC1OCCCn2c(c3c4cc(ccc42)-c2coc(n2)CC(NC(=O)C2CC2C(F)F)C(=O)N2CCCC(N2)C(=O)OCC(C)(C)C3)-c2cc(N3CCOCC3)cnc21` [Example 146, (1S,2S)-2-(difluoromethyl)-N-((1^5S,6^3S,4S,Z)-1^5,10,10-trimethyl-1^2-morpholino-5,7-dioxo-1^8,1^9, 6^1,6^2,6^3,6^4,6^5 6-octahydro-1^5H,1^7H-8-oxa-1(13,15)-pyrido[3',2':7,8][1,5]oxazonino[5,6-a]indola-2(4,2)-oxazola-6(1,3)-pyridazinacycloundecaphane-4-yl)cyclopropane-1-carboxamide], which IC50 (KRAS G12V-cRAF; read-out: NanoBRET KRAS G12V) is on record?
Answer: 8.52 nM

Question: What about the IC50 [1, 3] of the same compound?
Answer: 1.4 nM

Question: What about the IC50 (KRAS G12D-cRAF; read-out: NanoBRET KRAS G12D) of the same compound?
Answer: 1.97 nM

Question: And the IC50 [2, 4]?
Answer: 0.6 nM

Question: For `CC1OCCCn2c(c3c4cc(ccc42)-c2csc(n2)CC(NC(=O)C2CC2C(F)F)C(=O)N2CCCC(N2)C(=O)OCC(C)(C)C3)-c2cc(-c3ccc(N4CCN(C)CC4)cc3)cnc21` [Example 96, (1S,2S)-2-(difluoromethyl)-N-((1^5S,6^3S,4S,Z)-1^5,10,10-trimethyl-1^2-(4-(4-methylpiperazin-1-yl)phenyl)-5,7-dioxo-1^8,1^9,6^1,6^2,6^3,6^4,6^5,6^6-octahydro-15H,17H-8-oxa-1(13,15)-pyrido[3',2':7,8][1, 5]oxazonino[5,6-a]indola-2(4,2)-thiazola-6(1,3)-pyridazinacycloundecaphane-4-yl)cyclopropane-1-carboxamide], which IC50 (KRAS G12V-cRAF; read-out: NanoBRET KRAS G12V) is on record?
Answer: 19.8 nM

Question: What about the IC50 [1, 3] of the same compound?
Answer: 2.4 nM

Question: And the IC50 (KRAS G12D-cRAF; read-out: NanoBRET KRAS G12D)?
Answer: 5.99 nM

Question: And the IC50 [2, 4]?
Answer: 1.07 nM

Question: How did the IC50 (KRAS G12V-cRAF; read-out: NanoBRET KRAS G12V) turn out when `CC1OCCCn2c(c3c4cc(ccc42)-c2csc(n2)CC(NC(=O)C2CC2C(F)F)C(=O)N2CCCC(N2)C(=O)OCC(C)(C)C3)-c2cc(N3CCN(C4CN(C)C4)CC3)cnc21` [Example 108, (1S,2S)-2-(difluoromethyl)-N-((1^5S,6^3S,4S,Z)-1^5,10,10-trimethyl-1^2-(4-(1-methylazetidin-3-yl)piperazin-1-yl)-5,7-dioxo-1^8, 1^9,6^1,6^2,6^3,6^4,6^5 ,6^6-octahydro-1^5H,1^7H-8-oxa-1(13,15)-pyrido[3',2':7,8][1,5]oxazonino[5,6-a]indola-2(4,2)-thiazola-6(1,3)-pyridazinacycloundecaphane-4-yl)cycloprop ane-1-carboxamide] was run?
Answer: 37.9 nM

Question: And the IC50 [1]?
Answer: 0.58 nM

Question: What about the IC50 (KRAS G12D-cRAF; read-out: NanoBRET KRAS G12D) of the same compound?
Answer: 6.1 nM

Question: What about the IC50 [2] of the same compound?
Answer: 0.28 nM

Question: Which IC50 (KRAS G12V-cRAF; read-out: NanoBRET KRAS G12V) does the source give for `CCN1CCN(c2cnc3c(c2)-c2c4c5cc(ccc5n2CCCOC3C)-c2csc(n2)CC(NC(=O)C2CC2C(F)F)C(=O)N2CCCC(N2)C(=O)OCC(C)(C)C4)CC1` [Example 84, (1S,2S)-2-(difluoromethyl)-N-((1^5S,6^3S,4S,Z)-1^2-(4-ethylpiperazin-1-yl)-1^5,10,10-trimethyl-5,7-dioxo-1^8,1^9,6^1,6^2,6^3,6^4,6^5,6^6-octahydro-1^5H,1^7H-8-oxa-1(13,15)-pyrido[3',2':7,8][1,5]oxazonino[5,6-a]indola-2(4,2)-thiazola-6(1,3)-pyridazinacycloundecaphane-4-yl)cyclopropane-1-carboxamide] here?
Answer: 9.17 nM

Question: And the IC50 [1, 3]?
Answer: 1.15 nM

Question: And the IC50 (KRAS G12D-cRAF; read-out: NanoBRET KRAS G12D)?
Answer: 2.76 nM

Question: And the IC50 [2, 4]?
Answer: 0.19 nM

Question: What does the source list for `COCCN1CCN(c2cnc3c(c2)-c2c4c5cc(ccc5n2CCCOC3C)-c2csc(n2)CC(NC(=O)C2CC2C)C(=O)N2CCCC(N2)C(=O)OCC(C)(C)C4)CC1` [Example 22, (1S,2S)-N-((1^5S,6^3S,4S,Z)-1^2-(4-(2-methoxyethyl)piperazin-1-yl)-1^5,10,10-trimethyl-5,7-dioxo-1 ^8,1^9,6^1,6^2,6^3,6^4,6^5,6^6-octahydro-1^5H,1^7H-8-oxa-1(13,15)-pyrido[3',2':7,8][1,5]oxazonino[5,6-a]indola-2(4,2)-thiazola-6(1,3)-pyridazinacycloundecaphane-4-yl)-2-methylcyclopropane-1-carboxamide]?
Answer: IC50 (KRAS G12V-cRAF; read-out: NanoBRET KRAS G12V): 22.9 nM; IC50 [1, 3]: 2.62 nM; IC50 (KRAS G12D-cRAF; read-out: NanoBRET KRAS G12D): 6.6 nM; IC50 [2, 4]: 1.03 nM

Question: What does the source list for `CC1OCCCn2c(c3c4cc(ccc42)-c2csc(n2)CC(NC(=O)C2CC2C(F)F)C(=O)N2CCCC(N2)C(=O)OCC(C)(C)C3)-c2cc(N3CCC4(CCN(C)CC4)CC3)cnc21` [Example 103, (1S,2S)-2-(difluoromethyl)-N-((1^5S,6^3S,4S,Z)-1^5,10,10-trimethyl-1^2-(9-methyl-3,9-diazaspiro[5. 5]undecan-3-yl)-5,7-dioxo-1^8,1^9,6^1,6^2,6^3,6^4,6^5,6^6-octahydro-1^5H,1^7H-8-oxa-1(13,15)-pyrido[3',2': 7,8][1,5]oxazonino[5,6-a]indola-2(4,2)-thiazola-6(1,3)-pyridazinacycloundecaphane-4-yl)cyclop ropane-1-carboxamide]?
Answer: IC50 (KRAS G12V-cRAF; read-out: NanoBRET KRAS G12V): 22.2 nM; IC50 [1, 3]: 0.85 nM; IC50 (KRAS G12D-cRAF; read-out: NanoBRET KRAS G12D): 7.74 nM; IC50 [2, 4]: 0.21 nM
